# Test results as given in BindingDB's records for doi:10.1016/j.bmcl.2009.09.002 (Novartis Institutes For Biomedical Research, 2009).
# Test: Antagonist activity at human CXCR3 expressed in L1.2 cells assessed as inhibition of I-TAC-induced cell migration by flow cytometry
smiles,measurement,value
"CCN(CC)C(=O)[C@@H]1C=C2c3cccc4[nH]cc(c34)C[C@H]2N(C(=O)Nc2ccccc2)C1 [(6aR,9R)-N9,N9-diethyl-N7-phenyl-6,6a,8,9-tetrahydroindolo[4,3-fg]quinoline-7,9(4H)-dicarboxamide]",IC50,74 nM
